What was measured:
rat eyes = details: cited from earlier work
[1] = tested on: panel of 5 experienced testers; test: Long lasting cooling sensation: panel evaluation of toothpaste compositions; type: in vivo, human; details: added to standard toothpaste
Description: Phenylalkennals and homovanillic acid esters were added alone and in combination to a standard toothpaste composition. A panel of 5 experienced testers evaluated the compositions with regard to initial cooling effect during brushing, directly after brushing and the long last effect after 5 and after 10 minutes. The evaluation was done according to a score card from 1=almost no cooling effect to 10=strong cooling sensation. Example 1 is according to the invention, examples C1 to C3 serve for comparison.

Row | Structure (SMILES) | Pain sensation in rat eyes (assessment in words) (rat eyes) | Cooling sensation during and directly after brushing (in words) [1] | Long lasting cooling sensation after 5 and after 10 minutes (in words) [1]
1 | CCCOC(=O)Cc1ccc(O)c(OC)c1 [II-17, Propyl-2-(4-hydroxy-3-methoxyphenyl) acetate] | active |  | 
2 | COC(=O)Cc1ccc(O)c(OC)c1 [methyl ester of homovanillic acid] | active |  | 
3 | CCCCCCCCOC(=O)Cc1ccc(O)c(OC)c1 [octyl ester of homovanillic acid] | active |  | 
4 | CCCCCCCCCOC(=O)Cc1ccc(O)c(OC)c1 [nonyl ester of homovanillic acid] | active |  | 
5 | CCCCCCCCCCCCOC(=O)Cc1ccc(O)c(OC)c1 [dodecyl ester of homovanillic acid] | active |  | 
6 | C/C=C(/C=O)c1ccccc1 [Phenylbutenal, 2-Phenyl-but-2-enal] |  | improves the cooling sensation during and directly after brushing | does not have any long lasting effect

Source: US20230059747A1, “A COOLING PREPARATION” (SYMRISE AG, priority 2019, published 2023)
